In patent US12161114B2, “Overpowered ABA receptor agonists” (The Regents of the University of California, priority 2018, dated 2024):

What was measured:
[1] = system: panel of recombinant ABA receptors; PP2C HAB1; assay: receptor-mediated PP2C inhibition assay, dose response, umbelliferone substrate; format: biochemical, Arabidopsis; details: 4 nM to 50 μM dose response
Experimental: Each ligand was tested at concentrations spanning 7 points between 4 nM and 50 μM in triplicate in a reaction buffer containing 100 mM Tris-HCl-pH7.9, 100 mM NaCl, 30 μg/ml BSA, 0.1% 2-mercaptoethanol, 25 nM ΔN-HAB1, 1 mM 4-methylumbelliferyl phosphate, and different recombinant ABA receptors at 50 nM or 300 nM (for PYL9 or PYL11). The substrate was added ˜20 minutes after the other components had been mixed and fluorescence data collected. Control carrier solvent-only wells were included as a reference and %-activity for tested compounds calculated relative to this control. The dose response data (PP2C activity versus agonist concentration) was fit to a log (inhibitor) vs. response-(variable slope) model using non-linear regression to infer the IC50S, using GraphPad Prism 6.0, to yield the IC50 values shown in FIG. 6.
The potency and selectivity of ligands 2b, 2e-f was established by testing their ability to activate multiple ABA receptor subtypes using the fluorescence based phosphasted assay as outlined in example 2 at a range of concentrations (4 nM to 50 μM). In addition, we compared ligand potency to ABA, quinabactin and a recently described fluorinated quinabactin analog AMF4, which is reported to have improved potency in comparison toe quinabactin. To conduct the assays purified recombinant receptors were tested at 50 nM or, in the a cases of PYL9 and PYL11, 300 nM and 25 nM ΔN-HAB1. The PP2C-activity dose response data obtained was fit to a log (inhibitor) vs response-(variable slope) model using non-linear regression to infer the IC50S, using GraphPad Prism 6.0, to yield IC50 values as shown in FIG. 12A. […] Moreover, the installation of a single cyclopropyl group ortho to the nitrile (analog 2e) provided a further boost in potency, dramatically so for all subfamily III receptors, PYL4 and PYL11. […] Furthermore, the installation of a second cyclopropyl substituent (analog 2f) provides an even further boot in activity on subfamily III receptors, which comes at the expense of reduced potency on subfamily I receptors. […] 2f is therefore an unusually overpowered ABA receptor agonist, which we refer to as opabactin (Opa).

[2] = system: pyr1/pyl1, pyl8/pyl9 and abi1C mutants; assay: seed germination on receptor mutants and ABA signalling mutant abi1C; format: in vivo, Arabidopsis; details: tested at twice the EC50
Experimental: (§1) Prior to selecting a scaffold for optimization we conducted Arabidopsis seed germination assays to establish if the hits obtained are activity in vivo. Germination experiments were performed with surface sterilized wild type Columbia Arabidopsis thaliana seeds and abi1C (the abi1-1 allele isolated in the Columbia ecotype) plated onto 0.7% agar medium containing 1/2-x MS salts, 0.5% sucrose and differing concentrations of the test compounds. After 4d of stratification at 4° C., the plates were transferred to a growth chamber under continuous illumination and evaluated after 4 days.
Methods similar to example 3 were followed.

[3] = system: wild type Columbia Arabidopsis thaliana seeds; assay: Arabidopsis seed germination assay; format: in vivo; details: Arabidopsis thaliana
Experimental: as §1
To establish if the in vitro potency of Opa translates into improved activity in vivo, we measured the effects of ABA, QB, AMF4, Opa and 2e on Arabidopsis seed germination at a range of concentrations to infer quantitative measures or potency. Methods similar to that described in Example 3 are followed. The percentage of germinated seeds were recorded for each chemical treatment for each concentration in quadruplicate. EC50 values denote the concentrations at which 50% of seeds have been inhibited.

[4] = target: T1, PYL2 (Arabidopsis thaliana, UniProt O80992); assay: receptor-mediated PP2C inhibition assay, pnPP substrate, PYL2; format: biochemical
T1 construct: 6xHis; made in house
T1 sequence (O80992 1-190): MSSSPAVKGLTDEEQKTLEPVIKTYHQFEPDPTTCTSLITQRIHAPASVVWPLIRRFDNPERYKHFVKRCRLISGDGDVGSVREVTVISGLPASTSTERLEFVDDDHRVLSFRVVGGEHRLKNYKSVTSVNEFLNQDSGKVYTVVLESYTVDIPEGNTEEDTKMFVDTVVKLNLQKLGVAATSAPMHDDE
T1 sequence (Q9CAJ0 180-511 partner): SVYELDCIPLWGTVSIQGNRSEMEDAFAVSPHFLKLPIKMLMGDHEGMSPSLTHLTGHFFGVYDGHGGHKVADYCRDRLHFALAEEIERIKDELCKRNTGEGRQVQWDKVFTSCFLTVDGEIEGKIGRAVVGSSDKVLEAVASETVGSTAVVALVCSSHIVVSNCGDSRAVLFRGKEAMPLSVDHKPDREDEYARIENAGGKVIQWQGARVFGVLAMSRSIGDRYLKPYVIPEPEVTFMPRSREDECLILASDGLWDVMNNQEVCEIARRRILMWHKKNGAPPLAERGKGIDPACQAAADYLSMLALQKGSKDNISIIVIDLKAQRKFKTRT
Experimental: The potency and selectivity of ligand 10H4, a relatively potent member of scaffold 2, was characterized in separate experiments using an absorbance-based assay using the colorimetric substrate p-nitrophenyl phosphate (pNPP), as follows. Purified proteins (100 nM receptor, 50 nM HAB1) were pre-incubated in 160 μl assay buffer containing (100 mM Tris-HCl-pH7.9, 100 mM NaCl, 0.3 μg/mL BSA, 0.1% 2-mercaptoethanol, and 1 mM MnCl2) with ligands for 30 minutes at room temperature. Reactions were started by adding 40 μL of 25 mM p-NPP in assay buffer after which absorbance measurements were immediately collected at 405 nm on Tecan plate reader. The concentrations tested spanned 4 nM to 10 μM and the dose response data obtained was fit to a log (inhibitor) vs response-(variable slope) model using non-linear regression to infer the IC50S, using GraphPad Prism, to yield the IC50 values shown in FIG. 7.
8, no. 1, October 2017, p. 1183. • Daszkowska-Golec, Agata. […]

[5] = system: pooled ABA receptors (PYL1, PYL2, PYL4, PYL8, and maize receptor ZmPYLe) with PP2C HAB1; assay: pooled receptor activation assay (receptor/ligand-mediated inhibition of PP2C HAB1, 4-methylumbelliferyl phosphate); format: biochemical, Arabidopsis; maize; details: tested in duplicate at 20 μM
Excerpt: The angiosperm ABA receptor family is large and contains many receptors that cluster into 3 subfamilies. Multiple analyses have shown that agonists of subfamily III receptors are particularly efficacious as antitranspirants, however pan agonists or other new selective agonists may be valuable for crop enhancement. In principle, a docking hit molecule might interact with any or all ABA receptors, creating a large matrix of possible interactions and screening conditions. To expedite the process of screening for new ABA agonists, we developed a pooled receptor screening assay. To do this we selected phylogenetically diverse ABA receptors (PYL1, PYL2, PYL4, PYL8, and maize receptor ZmPYLe), pooled them, and assayed receptor/ligand-mediated inhibition of the PP2C HAB1. The Arabidopsis receptors and PP2C ΔN-HAB1 used were expressed and purified using previously described expression clones and methods (Okamoto et al.) PYL1, PYL2, PYL4, and PYL8 were expressed as 6×-His tags in pET28; ΔN-HAB1 was expressed as 6×-His tag as a truncated form lacking residues 1-179 in pETM-11. ZmPylE (GRMZM2G165567; ZmPYL8 in (He et al.)) was expressed as an MBP fusion protein in pMal-c and expressed and purified as described previously for PYL9 and PYL1 in reference (Okamoto et al.). Assays were conducted in a buffer containing 100 mM Tris-HCl-pH7.9, 100 mM NaCl, 30 μg/ml BSA, 0.1% 2-mercaptoethanol, 100 nM PYL1 and PYL2, 900 nM PYL4 and PYL8, 200 nM ZmPylE, 1 mM 4-methylumbelliferyl phosphate, and 20 μM test compound. The substrate was added ˜20 minutes after the other components had been mixed and fluorescence data collected after substrate addition using a Tecan Infinite F200 Pro fluorimeter. Control carrier solvent-only wells were included as a reference and %-PP2C activity calculated relative to this control. To validate this assay we tested multiple selective and pan-agonists to ensure that their activity could reliably be detected. […]

Row | SMILES | effect on germination in receptor mutant backgrounds [2] | activity in the pooled receptor assay [5] | also measured
1 | N#Cc1ccc(CC(=O)NC2(C(=O)O)CCCCC2)cc1 [2b, 1-[2-(4-cyanophenyl)acetamido]cyclohexane-1-carboxylic acid] |  |  | potency in receptor-mediated PP2C inhibition (in words) [1]: dramatically improves activity across all receptors tested
2 | N#Cc1ccc(CC(=O)NC2(C(=O)O)CCCCC2)cc1C1CC1 [2e, 1-[2-(4-cyano-3-cyclopropylphenyl)acetamido]cyclohexane-1-carboxylic acid] | clearly reduced in the pyr1/pyl1 and pyl8/pyl9 mutant backgrounds |  | test concentration (twice the EC50 for germination inhibition) ([3]; printed value is twice the EC50, used as test concentration on mutants, read-out: twice the concentrations determined as its EC50 (inhibition of germination) (converted)): 220 nM; potency in receptor-mediated PP2C inhibition (in words) [1]: high potency across all receptors tested
3 | CS(=O)(=O)NC(=O)C1(NC(=O)Cc2ccc(C#N)c(C3CC3)c2)CCCCC1 [2r] |  |  | activity on PYL2 (in words) [4]: modestly activity on PYL2
4 | CC1=CC(=O)CC(C)(C)[C@@]1(O)/C=C/C(C)=C\C(=O)O [ABA, Abscisic acid] | clearly reduced in the pyr1/pyl1 and pyl8/pyl9 mutant backgrounds | active | EC50 ([3]; read-out: twice the concentrations determined as its EC50 (inhibition of germination)): 600 nM
5 | CCCN1C(=O)CCc2cc(NS(=O)(=O)Cc3c(F)c(F)c(C)c(F)c3F)ccc21 [AMF4] | only show diminished activity in the pyr1/pyl1 mutant |  | 
6 | O=S(=O)(NCc1ccccn1)c1ccc(Br)c2ccccc12 [pyrabactin] |  | active | 
7 | CCCN1C(=O)CCc2cc(NS(=O)(=O)Cc3ccc(C)cc3)ccc21 [quinabactin] | only show diminished activity in the pyr1/pyl1 mutant | active | 
